What all share (assay): Homologous whole cell competition binding
Holding throughout (details): homologous competition of 125I-sCT(8-32), whole cells, mean ± S.E.M., SEM

One experiment deals with T1, hCTR F359A (Homo sapiens, UniProt P30988, F359A).
T1 construct: expressed in transfected cells
T1 sequence (P30988 25-474 F359A): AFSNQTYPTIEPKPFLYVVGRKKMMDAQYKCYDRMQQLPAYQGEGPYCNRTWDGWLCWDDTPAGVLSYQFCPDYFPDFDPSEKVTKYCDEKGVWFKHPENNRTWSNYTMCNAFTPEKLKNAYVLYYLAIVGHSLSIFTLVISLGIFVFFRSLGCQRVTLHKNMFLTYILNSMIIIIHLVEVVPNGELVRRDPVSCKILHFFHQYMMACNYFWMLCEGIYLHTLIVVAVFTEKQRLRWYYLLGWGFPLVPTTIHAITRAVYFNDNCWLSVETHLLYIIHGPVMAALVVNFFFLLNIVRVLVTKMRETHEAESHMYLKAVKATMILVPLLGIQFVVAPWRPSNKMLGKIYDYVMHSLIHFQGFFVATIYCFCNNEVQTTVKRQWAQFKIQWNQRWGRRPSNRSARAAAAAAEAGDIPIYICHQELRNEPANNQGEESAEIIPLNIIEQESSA
Put shortly: (§1)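 Affinity comes from self-competition of sCT(8-32) against its iodinated form on intact cells, held at 4 °C overnight. Bound counts were read on a gamma counter, fitted to a 3-parameter logistic curve and converted with Cheng-Prusoff.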

The next experiment deals with T2, hCTR L368A (Homo sapiens, UniProt P30988, L368A).
T2 construct: c-Myc (N); expressed in transfected cells
T2 sequence (P30988 25-474 L368A): T1 sequence (P30988 25-474 F359A) with A335F, L344A
Put shortly:
as §1

The next experiment addresses T3, hCTR E294A (Homo sapiens, UniProt P30988, E294A).
T3 construct: c-Myc (N); expressed in transfected cells
T3 sequence (P30988 25-474 E294A): T1 sequence (P30988 25-474 F359A) with E270A, A335F
An outline of the steps:
as §1

For the next experiment, the target named is T4, hCTR WT (Homo sapiens, UniProt P30988).
T4 construct: expressed in transfected cells
T4 sequence (P30988 25-474): T1 sequence (P30988 25-474 F359A) with A335F
Put shortly: as §1

Where a chain is given by its changes, count along the chain named. Where no end group is shown, it is not given here.

Turning to “VLGKLSQELHKLQTYPRTNTGSGTP-NH2 [sCT(8-32)]”, the Ki (as a rule, a measure of affinity in units of concentration, obtained from inhibition or displacement) was 0.219 nM at hCTR F359A, 0.209 nM at hCTR L368A, 0.263 nM at hCTR E294A and 0.2 nM at hCTR WT.

Source of the values: article PMC5908784, “Extracellular loops 2 and 3 of the calcitonin receptor selectively modify agonist binding and efficacy” (Biochemical Pharmacology, 2018).
